Like-named read-outs stand apart in the source and are kept apart here.
What was measured:
non-neuronal MAO [1] = experiment: Ex vivo brain MAO activity after oral gavage in rats, non-neuronal MAO; parameters: species or system rat; details: 18 hours
Experimental: (§1) MAO activity was determined in the brain using 5-HT and phenethylamine (PEA) as substrates.

neuronal MAO [2] = experiment: Ex vivo MAO activity after i.p. injection in rats, neuronal MAO; parameters: species or system rat
Experimental: (§2) Rats were injected with AFHBA (0.5 mg/kg, i.p.) alone or with AFHBA (0.5 mg/kg, i.p.) in combination with MFMD (2.0 mg/kg, i.p.) administered 30 minutes before AFHBA. Animals were killed 18 hours later and MAO activity (5-HT and phenethylamine as substrates) was determined in brain, heart, and liver. In the brain, AFHBA administered alone inhibited neuronal MAO by 72% and non-neuronal MAO by 37%.
(§3) III. Rats were injected with AFMBA (100 mg/kg, i.p.) and were killed 18 hours later. MAO activity was determined in the brain, heart, and liver using 5-HT and PEA.

[3] = In vitro decarboxylation by partially purified hog kidney AADC (HPLC); type: in vitro ADME; details: pig; hog kidney AADC, 37°, 2 hours, DL-mixture, HPLC; read-out: decarboxylation to the corresponding allylamine
Experimental: (§4) AFHBA was incubated with partially purified hog kidney AADC at 37° for various times up to 2 hours.

[4] = test system: partially purified hog kidney AADC; experiment: as above; type: in vitro ADME; details: with 10 μM MFMD (AADC inhibitor)
Experimental: as §4

[5] = test system: brain noradrenaline and 5-HT concentrations; experiment: Brain amine concentration after 5 days oral MAO inhibitor in rats (Table I); type: in vivo, rat; details: for Brain Amine Concentration, Noradrenaline / Brain Amine Concentration, 5-HT: 5 days
Experimental: On the 6th day, rats were anaesthetized and heart rate and blood pressure responses to tyramine (0.3-50 mg/kg) administered intraduodenally (i.d.) were determined. Additionally, monoamines and MAO activity were determined in various tissues including brain.

MAO [6] = experiment: In vitro MAO inhibition; type: biochemical
[7] = test system: heart rate and blood pressure responses to tyramine; experiment: Potentiation of tyramine response after 5 days oral MAO inhibitor in rats (Table I); type: in vivo, rat; details: 5 days, tyramine i.d.
Experimental: (A) Rats were gavaged daily for 5 days with saline or 2-amino-4-fluoro-3-(3'-hydroxyphenyl)-3-butenoic acid (AFHBA) at dosages of 15.6, 62.5, 250, or 1000 μg/kg or with clorgyline at dosages of 1250 or 5000 μg/kg. On the 6th day, rats were anaesthetized and heart rate and blood pressure responses to tyramine (0.3-50 mg/kg) administered intraduodenally (i.d.) were determined. Additionally, monoamines and MAO activity were determined in various tissues including brain.

MAO [8] = experiment: Ex vivo MAO activity in rats, protection by extracerebral AADC inhibitor; parameters: species or system rat; details: AFHBA 0.5 mg/kg i.p. + MFMD 2.0 mg/kg i.p. 30 min before, liver
Experimental: as §2, §1

[9] = test system: dopamine, DOPAC, 5-HT, and 5-HIAA concentrations in the brain; experiment: In vivo brain dopamine, DOPAC, 5-HT and 5-HIAA concentrations after i.p. injection in rats; parameters: species or system rat
Experimental: Rats were injected with AFHBA (0.5 mg/kg, i.p.) alone or with AFHBA (0.5 mg/kg, i.p.) in combination with MFMD (2 mg/kg, i.p.) or carbidopa (50 mg/kg, i.p.) given 30 minutes before the AFHBA. The rats were killed 18 hours later, and dopamine, DOPAC, 5-HT, and 5-HIAA concentrations were determined in the brain.

[10] = test system: dopamine, DOPAC, 5-HT, and 5-HIAA concentrations in the brain; experiment: In vivo brain dopamine, DOPAC, 5-HT and 5-HIAA concentrations after oral dosing in rats; parameters: species or system rat; details: 18 hours
Experimental: In a separate experiment, rats were given AFHBA orally at various doses. The rats were killed 18 hours later and dopamine, DOPAC, 5-HT, and 5-HIAA concentrations were determined in the brain.

neuronal MAO [11] = experiment: Ex vivo brain MAO activity after oral gavage in rats, neuronal MAO; parameters: species or system rat; details: 18 hours
Experimental: as §1

non-neuronal MAO [12] = experiment: Ex vivo MAO activity after i.p. injection in rats, non-neuronal MAO; parameters: species or system rat
Experimental: as §2, §3

[13] = test system: heart rate and blood pressure responses to tyramine; type: in vivo, rat; details: for Tyramine Potentiation: 5 days, tyramine i.d.; for Tyramine Potentiation over and above that of carbidopa: figure in brackets
Experimental: (B) Rats were gavaged with saline or carbidopa given at dosage of 10 or 100 mg/kg. Thirty minutes later, the rats were gavaged with saline or AFHBA given at a dosage of 62.5 μg/kg. This treatment was repeated daily for 5 days. On the 6th day, the rats were anaesthetized and heart rate and blood pressure responses to tyramine (0.3-50 mg/kg, i.d.) were determined. Additionally, monoamines and MAO activity were determined in various tissues, including brain.

[14] = AFHBA 0.5 mg/kg i.p. + MFMD 2.0 mg/kg i.p. 30 min before, brain
[15] = AFHBA 0.5 mg/kg i.p. + MFMD 2.0 mg/kg i.p. 30 min before, heart
[16] = AFHBA alone 0.5 mg/kg i.p., 18 hours, brain
[17] = AFHBA alone 0.5 mg/kg i.p., 18 hours, heart
[18] = AFHBA alone 0.5 mg/kg i.p., 18 hours, liver
[19] = AFHBA 0.5 mg/kg i.p. + MFMD 2 mg/kg i.p. 30 min before
[20] = AFHBA 0.5 mg/kg i.p. + carbidopa 50 mg/kg i.p. 30 min before
[21] = AFHBA alone 0.5 mg/kg i.p., 18 hours

NC(C(=O)O)C(=CF)c1cccc(O)c1 (racemic) [AFHBA, 2-Amino-4-fluoro-3-(3'-hydroxyphenyl)-3-butenoic acid]
% Inhibition of MAO, Non-neuronal (non-neuronal MAO [1]; 0.5 mg/kg oral): 41% | % Inhibition of MAO, Non-neuronal (non-neuronal MAO [1]; 1.0 mg/kg oral): 64% | % Inhibition of MAO, Non-neuronal (non-neuronal MAO [1]; 2.5 mg/kg oral): 83% | inhibition of neuronal MAO, brain, MFMD pretreatment (neuronal MAO [2]; [14]): 68% | inhibition of neuronal MAO, heart, MFMD pretreatment (neuronal MAO [2]; [15]): 18% | inhibition of neuronal MAO, brain (neuronal MAO [2]; [16]): 72% | inhibition of neuronal MAO, heart (neuronal MAO [2]; [17]): 52% | MAO inhibition, liver (neuronal) (neuronal MAO [2]; [18]): 29% | metabolised at 2 h [3]: 50% | decarboxylation in the presence of MFMD [4]: no decarboxylation was observed | Brain Amine Concentration, Noradrenaline ([5]; AFHBA 15.6 μg/kg daily p.o., saline 318 ± 12): 347 ± 9 ng/g | Brain Amine Concentration, 5-HT ([5]; AFHBA 15.6 μg/kg daily p.o., saline 507 ± 18): 530 ± 27 ng/g | Brain Amine Concentration, 5-HT ([5]; AFHBA 62.5 μg/kg daily p.o.): 531 ± 32 ng/g | Brain Amine Concentration, Noradrenaline ([5]; AFHBA 62.5 μg/kg daily p.o.): 391 ± 12 ng/g | Brain Amine Concentration, 5-HT ([5]; AFHBA 250 μg/kg daily p.o.): 1082 ± 98 ng/g | Brain Amine Concentration, Noradrenaline ([5]; AFHBA 250 μg/kg daily p.o.): 563 ± 23 ng/g | Brain Amine Concentration, 5-HT ([5]; AFHBA 1000 μg/kg daily p.o.): 1486 ± 67 ng/g | Brain Amine Concentration, Noradrenaline ([5]; AFHBA 1000 μg/kg daily p.o.): 650 ± 29 ng/g | brain noradrenaline and 5-HT concentrations (dose relation) ([5]; subacute treatment): dose-related increases in brain noradrenaline and 5-HT concentrations | MAO inhibition in vitro (MAO [6]): inactive or very weak inhibitor | Tyramine Potentiation ([7]; AFHBA 15.6 μg/kg daily p.o., some potentiation at lowest doses of tyramine (footnote c)): 1.0 | Tyramine Potentiation ([7]; AFHBA 62.5 μg/kg daily p.o.): 4.0 | Tyramine Potentiation ([7]; AFHBA 250 μg/kg daily p.o.): 7.1 | Tyramine Potentiation ([7]; AFHBA 1000 μg/kg daily p.o.): 7.7 | MAO inhibition, liver, MFMD pretreatment (MAO [8]): totally blocked MAO inhibition | % Change from Control, 5-HIAA [9, 19]: -48% | % Change from Control, 5-HT [9, 19]: +92% | % Change from Control, DOPAC [9, 19]: -92% | % Change from Control, Dopamine [9, 19]: +50% | % Change from Control, 5-HIAA [9, 20]: -37% | % Change from Control, 5-HT [9, 20]: +92% | % Change from Control, DOPAC [9, 20]: -89% | % Change from Control, Dopamine [9, 20]: +54% | % Change from Control, 5-HIAA [9, 21]: -34% | % Change from Control, 5-HT [9, 21]: +30% | % Change from Control, DOPAC [9, 21]: -76% | % Change from Control, Dopamine [9, 21]: +25% | % Change from Control, 5-HIAA ([10]; 0.5 mg/kg oral): -11% | % Change from Control, 5-HT ([10]; 0.5 mg/kg oral): +26% | % Change from Control, DOPAC ([10]; 0.5 mg/kg oral): -55% | % Change from Control, 5-HIAA ([10]; 1.0 mg/kg oral): -23% | % Change from Control, 5-HT ([10]; 1.0 mg/kg oral): +74% | % Change from Control, DOPAC ([10]; 1.0 mg/kg oral): -72% | % Change from Control, Dopamine ([10]; 1.0 mg/kg oral): +17% | % Change from Control, 5-HIAA ([10]; 2.5 mg/kg oral): -41% | % Change from Control, 5-HT ([10]; 2.5 mg/kg oral): +140% | % Change from Control, DOPAC ([10]; 2.5 mg/kg oral): -79% | % Change from Control, Dopamine ([10]; 2.5 mg/kg oral): +28% | % Inhibition of MAO, Neuronal (neuronal MAO [11]; 0.5 mg/kg oral): 63% | % Inhibition of MAO, Neuronal (neuronal MAO [11]; 1.0 mg/kg oral): 71% | % Inhibition of MAO, Neuronal (neuronal MAO [11]; 2.5 mg/kg oral): 95% | inhibition of non-neuronal MAO, brain, MFMD pretreatment (non-neuronal MAO [12]; [14]): 28% | inhibition of non-neuronal MAO, heart, MFMD pretreatment (non-neuronal MAO [12]; [15]): 4% | inhibition of non-neuronal MAO, brain (non-neuronal MAO [12]; [16]): 37% | inhibition of non-neuronal MAO, heart (non-neuronal MAO [12]; [17]): 44% | MAO inhibition, liver (non-neuronal) (non-neuronal MAO [12]; [18]): 38% | potentiation of the tyramine response, combination versus AFHBA alone ([13]; AFHBA 62.5 μg/kg + carbidopa 10 mg/kg): the potentiation did not exceed that of AFHBA given alone | Tyramine Potentiation ([13]; carbidopa 10000 μg/kg + AFHBA 62.5 μg/kg daily p.o.): 3.1 | Tyramine Potentiation over and above that of carbidopa ([13]; carbidopa 10000 μg/kg + AFHBA 62.5 μg/kg): 2.8 | Tyramine Potentiation ([13]; carbidopa 100000 μg/kg + AFHBA 62.5 μg/kg daily p.o.): 5.0 | Tyramine Potentiation over and above that of carbidopa ([13]; carbidopa 100000 μg/kg + AFHBA 62.5 μg/kg): 2.2 | Tyramine Potentiation ([13]; saline + AFHBA 62.5 μg/kg daily p.o.): 4.0

Reference: patent publication US4421767A, “Compounds and methods for treating depression” (priority 1982, dated 1983)
